Measurements as given in ChEMBL document CHEMBL1909046, “DrugMatrix in vitro pharmacology data”.
pIC50, pKi: −log10 of the molar value.

Tests used:
[1] = DRUGMATRIX: Sigma2 radioligand binding (ligand: [3H] Ifenprodil); type: cell membranes, Rattus norvegicus, Wistar, Brain, Membrane; settings: Not Active = under 50% inhibition at 10 µM
[2] = biological target: T1, Amine oxidase [flavin-containing] A (Homo sapiens, UniProt P21397); test: DRUGMATRIX: Monoamine Oxidase MAO-A enzyme inhibition (substrate: Kynuramine); set-up: species or system BTI-TN-5B1-4; settings: Not Active = under 50% inhibition at 10 µM; for IC50: bti-tn-5b1-4
T1 sequence (P21397 whole entry): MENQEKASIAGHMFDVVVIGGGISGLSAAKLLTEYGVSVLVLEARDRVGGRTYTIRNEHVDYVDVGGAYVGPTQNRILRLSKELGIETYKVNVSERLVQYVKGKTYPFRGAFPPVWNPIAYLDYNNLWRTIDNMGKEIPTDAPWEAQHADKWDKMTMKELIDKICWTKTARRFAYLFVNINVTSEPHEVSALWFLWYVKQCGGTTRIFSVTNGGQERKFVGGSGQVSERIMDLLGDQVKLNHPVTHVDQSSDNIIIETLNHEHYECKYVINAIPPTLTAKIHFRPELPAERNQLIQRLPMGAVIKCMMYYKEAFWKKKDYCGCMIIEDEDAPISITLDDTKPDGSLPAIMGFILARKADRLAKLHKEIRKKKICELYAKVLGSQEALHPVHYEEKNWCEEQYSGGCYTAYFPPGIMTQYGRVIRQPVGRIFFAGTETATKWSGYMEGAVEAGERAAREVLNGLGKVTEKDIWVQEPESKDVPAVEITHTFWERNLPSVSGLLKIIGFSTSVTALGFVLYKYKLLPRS

[3] = DRUGMATRIX: Phosphodiesterase PDE4 enzyme inhibition (substrate: [3H]cAMP + cAMP); settings: u-937; Not Active = under 50% inhibition at 10 µM
[4] = biological target: T2, Receptor-type tyrosine-protein phosphatase C (Homo sapiens, UniProt P08575); set-up: species or system Escherichia coli;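 note: inhibition of CD45 enzyme activity measured using DiFMUP as substrate; in other assays of this panel Not Active means under 50% inhibition at 10 µM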
T2 sequence (P08575 whole entry): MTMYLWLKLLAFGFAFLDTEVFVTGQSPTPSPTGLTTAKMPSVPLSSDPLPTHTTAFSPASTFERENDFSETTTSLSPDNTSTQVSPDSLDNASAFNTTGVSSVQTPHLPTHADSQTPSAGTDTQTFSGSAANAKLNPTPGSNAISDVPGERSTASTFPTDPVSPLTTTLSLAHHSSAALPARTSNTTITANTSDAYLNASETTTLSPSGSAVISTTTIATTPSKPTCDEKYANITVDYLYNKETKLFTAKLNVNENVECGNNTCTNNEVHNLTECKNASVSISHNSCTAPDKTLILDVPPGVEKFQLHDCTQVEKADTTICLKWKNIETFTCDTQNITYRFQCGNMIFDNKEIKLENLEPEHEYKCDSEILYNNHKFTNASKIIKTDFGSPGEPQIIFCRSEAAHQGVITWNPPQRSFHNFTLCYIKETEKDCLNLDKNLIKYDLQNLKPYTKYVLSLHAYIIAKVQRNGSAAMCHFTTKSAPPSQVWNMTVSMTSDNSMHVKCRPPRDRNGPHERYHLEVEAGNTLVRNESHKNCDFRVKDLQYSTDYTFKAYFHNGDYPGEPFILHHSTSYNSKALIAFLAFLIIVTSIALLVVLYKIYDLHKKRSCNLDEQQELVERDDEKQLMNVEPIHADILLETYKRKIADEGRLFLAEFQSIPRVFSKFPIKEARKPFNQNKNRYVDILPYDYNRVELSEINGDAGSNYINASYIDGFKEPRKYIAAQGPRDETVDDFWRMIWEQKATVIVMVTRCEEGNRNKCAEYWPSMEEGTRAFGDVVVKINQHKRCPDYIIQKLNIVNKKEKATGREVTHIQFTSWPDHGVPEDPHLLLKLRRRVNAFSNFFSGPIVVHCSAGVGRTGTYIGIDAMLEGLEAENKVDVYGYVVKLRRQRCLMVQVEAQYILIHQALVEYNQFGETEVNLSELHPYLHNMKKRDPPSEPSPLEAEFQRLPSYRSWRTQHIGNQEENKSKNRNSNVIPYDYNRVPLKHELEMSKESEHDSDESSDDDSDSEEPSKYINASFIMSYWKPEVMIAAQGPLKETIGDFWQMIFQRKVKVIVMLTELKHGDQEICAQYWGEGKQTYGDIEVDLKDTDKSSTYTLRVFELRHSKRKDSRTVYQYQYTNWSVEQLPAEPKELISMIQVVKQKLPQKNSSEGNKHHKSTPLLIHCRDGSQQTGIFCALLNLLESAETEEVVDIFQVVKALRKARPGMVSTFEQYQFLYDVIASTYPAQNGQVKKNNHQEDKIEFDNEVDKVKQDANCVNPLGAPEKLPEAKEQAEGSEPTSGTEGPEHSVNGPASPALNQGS

[5] = biological target: T3, 5-hydroxytryptamine receptor 1A (Rattus norvegicus, UniProt P19327); type: cell membranes, Membrane; settings: cho-k1; note: in other assays of this panel Not Active means under 50% inhibition at 10 µM
T3 sequence (P19327 whole entry): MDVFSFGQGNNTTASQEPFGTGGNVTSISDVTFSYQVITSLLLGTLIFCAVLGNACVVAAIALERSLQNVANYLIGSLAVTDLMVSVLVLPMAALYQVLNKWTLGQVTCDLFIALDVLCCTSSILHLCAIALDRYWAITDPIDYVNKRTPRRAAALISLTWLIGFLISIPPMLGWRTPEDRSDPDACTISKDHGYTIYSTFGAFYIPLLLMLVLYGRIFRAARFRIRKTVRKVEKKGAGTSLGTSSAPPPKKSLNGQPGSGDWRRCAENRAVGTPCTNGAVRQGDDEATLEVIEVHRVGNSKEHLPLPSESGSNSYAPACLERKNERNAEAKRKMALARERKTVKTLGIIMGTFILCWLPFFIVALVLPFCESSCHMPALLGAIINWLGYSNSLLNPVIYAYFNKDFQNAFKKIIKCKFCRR

[6] = biological target: 5-hydroxytryptamine receptor 1B (Rattus norvegicus, UniProt P28564); type: cell membranes, Wistar, Cerebral cortex, Membrane; note: in other assays of this panel Not Active means under 50% inhibition at 10 µM
Sequence of 5-hydroxytryptamine receptor 1B (P28564 whole entry): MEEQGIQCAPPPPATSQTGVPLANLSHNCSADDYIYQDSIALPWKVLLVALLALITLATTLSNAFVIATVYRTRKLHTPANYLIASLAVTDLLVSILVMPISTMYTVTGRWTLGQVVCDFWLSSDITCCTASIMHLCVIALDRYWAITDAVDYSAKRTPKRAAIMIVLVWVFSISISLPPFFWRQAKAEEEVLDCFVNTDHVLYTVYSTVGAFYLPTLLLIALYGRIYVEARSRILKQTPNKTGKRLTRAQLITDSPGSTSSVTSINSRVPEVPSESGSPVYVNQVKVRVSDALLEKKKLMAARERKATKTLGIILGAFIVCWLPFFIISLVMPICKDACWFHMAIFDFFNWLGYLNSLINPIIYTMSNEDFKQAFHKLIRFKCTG

Compound	IC50 [1]	Ki [1]	IC50 [2]	IC50 [3]	Ki [3]	IC50 [4]	IC50 [5]	IC50 [6]	pIC50 ([1]; read-out: IC50)	pKi ([1]; read-out: Ki)	pIC50 ([2]; read-out: IC50)
NC(=O)c1cnccn1 [PYRAZINAMIDE]	Not Active	Not Active	Not Active	Not Active	Not Active	Not Active	Not Active	Not Active	–	–	–
O=C1CC[C@H](N2C(=O)c3ccccc3C2=O)C(=O)N1	Not Active	Not Active	Not Active	Not Active	Not Active	Not Active	Not Active	Not Active	–	–	–
ClC(Cl)Cl [CHLOROFORM]	Not Active	Not Active	Not Active	Not Active	Not Active	Not Active	Not Active	Not Active	–	–	–
CCc1c2c(nc3ccc(OC(=O)N4CCC(N5CCCCC5)CC4)cc13)-c1cc3c(c(=O)n1C2)COC(=O)[C@]3(O)CC [IRINOTECAN]	Not Active	Not Active	Not Active	Not Active	Not Active	Not Active	Not Active	Not Active	–	–	–
CCCN(CCC)C(=O)C(CCC(=O)O)NC(=O)c1ccccc1 (stereo not drawn) [PROGLUMIDE]	Not Active	Not Active	Not Active	Not Active	Not Active	Not Active	Not Active	Not Active	–	–	–
CCCC(CCC)C(=O)O [VALPROIC ACID]	Not Active	Not Active	Not Active	Not Active	Not Active	Not Active	Not Active	Not Active	–	–	–
Cc1ccccc1C(=O)N1CCC(Cc2ccccc2)CC1	Not Active	Not Active	Not Active	Not Active	Not Active	Not Active	Not Active	Not Active	–	–	–
CCCC(=O)Nc1ccc(OCC(O)CNC(C)C)c(C(C)=O)c1 (stereo not drawn) [ACEBUTOLOL]	Not Active	Not Active	Not Active	Not Active	Not Active	Not Active	Not Active	Not Active	–	–	–
OC(CCN1CCCCC1)(c1ccccc1)C1CCCCC1 (stereo not drawn) [TRIHEXYPHENIDYL]	–	–	Not Active	Not Active	Not Active	Not Active	Not Active	Not Active	5.51	5.72	–
Cc1ccc(S(=O)(=O)NC(=O)NN2CC3CCCC3C2)cc1 (stereo not drawn) [GLICLAZIDE]	Not Active	Not Active	Not Active	Not Active	Not Active	Not Active	Not Active	Not Active	–	–	–
N=C(N)NC(=O)c1nc(Cl)c(N)nc1N [AMILORIDE]	Not Active	Not Active	–	Not Active	Not Active	Not Active	Not Active	Not Active	–	–	5.41
